According to patent US11291672B2, “Betamethasone oral spray formulation and method of use to treat ataxia” (GRACE THERAPEUTICS LLC, priority 2016, dated 2022):
Blank lines part the entries; values can stand above or below the compound they belong to.

How the values were obtained:
[1] = comparison among glucocorticoids; cited from earlier work
[2] = Solubility in purified water; conditions: vortex 5 minutes
Source text: Respective salt and base forms of betamethasone and dexamethasone were weighed and transferred in the glass test tube.

[3] = cited from earlier work
[4] = tested on: neurological symptoms in ataxia telangiectasia; conditions: 0.1 mg/kg/day, cited from earlier work
[5] = tested on: ataxia symptoms in children with AT; conditions: cited from earlier work

SMILES: C[C@]12CCC(=O)C=C1CC[C@@H]1[C@@H]2[C@@H](O)C[C@@]2(C)[C@H]1CC[C@]2(O)C(=O)CO [hydrocortisone]
equivalent mg dosage [1]: 20 mg

Solubility in purified water ([2]; Concentration 0.25 mg/0.14 ml): Soluble | Solubility in purified water ([2]; Concentration 0.50 mg/0.14 ml): Soluble | Solubility in purified water ([2]; Concentration 1.00 mg/0.14 ml): Soluble | Solubility in purified water ([2]; Concentration 1.50 mg/0.14 ml): Soluble | Solubility in purified water ([2]; Concentration 2.00 mg/0.14 ml): Soluble | Solubility in purified water ([2]; Concentration 4.00 mg/0.14 ml): Soluble | Solubility in purified water ([2]; Concentration 8.00 mg/0.14 ml): Soluble
SMILES: C[C@H]1CC2C3CCC4=CC(=O)C=C[C@]4(C)[C@@]3(F)[C@@H](O)C[C@]2(C)[C@@]1(O)C(=O)COP(=O)(O)O (stereo partly drawn) [Betamethasone disodium phosphate, 9-Fluoro-11β,17,21-trihydroxy-16β-methylpregna-1,4-diene-3,20-dione 21-(disodium phosphate)]
solubility (in words) [3]: soluble | stability in aqueous solution ([3]; strongly influenced by storage temperature): very low

SMILES: C[C@H]1C[C@H]2[C@@H]3CCC4=CC(=O)C=C[C@]4(C)[C@@]3(F)[C@@H](O)C[C@]2(C)[C@@]1(O)C(=O)CO [betamethasone]
Solubility in purified water ([2]; Concentration 0.25 mg/0.14 ml): Not Soluble | change in phenotypic appearance (adverse effect) ([4]; 4 weeks): moon face | body weight at 4 weeks ([4]; from 15.5 kg): 19.0 kg | patients with moon face ([5]; 13 children): 8 patients | patients with small increases in body weight ([5]; 13 children): 12 patients | adverse events in the trial ([5]; in vivo): minimal

SMILES: C[C@]12C=CC(=O)C=C1CC[C@@H]1[C@@H]2[C@@H](O)C[C@@]2(C)[C@H]1CC[C@]2(O)C(=O)CO [prednisolone]
equivalent mg dosage [1]: 5 mg

SMILES: C[C@]12C=CC(=O)C=C1CC[C@H]1[C@@H]3C[C@@H](O)[C@](O)(C(=O)CO)[C@@]3(C)C[C@H](O)[C@@]12F [triamcinolone]
equivalent mg dosage [1]: 4 mg

SMILES: C[C@@H]1C[C@H]2[C@@H]3CCC4=CC(=O)C=C[C@]4(C)[C@@]3(F)[C@@H](O)C[C@]2(C)[C@@]1(O)C(=O)COP(=O)([O-])[O-].[Na+].[Na+] [Dexamethasone disodium phosphate]
Solubility in purified water ([2]; Concentration 1.00 mg/0.14 ml): Soluble | Solubility in purified water ([2]; Concentration 2.00 mg/0.14 ml): Soluble | Solubility in purified water ([2]; Concentration 4.00 mg/0.14 ml): Soluble | Solubility in purified water ([2]; Concentration 8.00 mg/0.14 ml): Soluble

Solubility in purified water ([2]; Concentration 0.25 mg/0.14 ml): Not Soluble
SMILES: C[C@@H]1C[C@H]2[C@@H]3CCC4=CC(=O)C=C[C@]4(C)[C@@]3(F)[C@@H](O)C[C@]2(C)[C@@]1(O)C(=O)CO [dexamethasone]
